# Test results: patent US20210244737A1, “COMPOSITIONS FOR TREATING MELANOMA” (INSERM (INSTITUT NATIONAL DE LA SANTÉ ET DE LA RECHERCHE …, priority 2018, published 2021)
# Columns and labels:
# 1205Lu melanoma cells [1] = assay: Apoptosis by flow cytometry (AnnexinV-FITC/PI) of cells on MAF-derived ECM; type: cell-based; settings: 10 μM Imatinib in presence of 2 μM Vemurafenib, 48 h, 1205Lu on 3D-ECM
# Procedure: Cell cycle profiles were determined by flow cytometry analysis of propidium iodide (PI)-stained cells. Melanoma cells cultured onto cell-derived matrices and treated with or without 2 μM vemurafenib for 48 h were washed, fixed in 80% ethanol and incubated at −20° C. for 24 h. Cells were then stained for 20 min at 37° C. in buffer containing 40 μg/ml PI and 20 μg/ml ribonuclease A from bovine pancreas. Cell cycle profiles were collected on a FACS Canto. Cell death was evaluated by flow cytometry following staining with AnnexinV/PI (eBioscience).
# DDR2 = target: T1, DDR2 (Homo sapiens, UniProt Q16832); assay: Type I collagen-mediated DDR2 tyrosine phosphorylation in melanoma cells (immunoblot); type: cell-based; settings: data not shown
# T1 sequence (Q16832 22-855): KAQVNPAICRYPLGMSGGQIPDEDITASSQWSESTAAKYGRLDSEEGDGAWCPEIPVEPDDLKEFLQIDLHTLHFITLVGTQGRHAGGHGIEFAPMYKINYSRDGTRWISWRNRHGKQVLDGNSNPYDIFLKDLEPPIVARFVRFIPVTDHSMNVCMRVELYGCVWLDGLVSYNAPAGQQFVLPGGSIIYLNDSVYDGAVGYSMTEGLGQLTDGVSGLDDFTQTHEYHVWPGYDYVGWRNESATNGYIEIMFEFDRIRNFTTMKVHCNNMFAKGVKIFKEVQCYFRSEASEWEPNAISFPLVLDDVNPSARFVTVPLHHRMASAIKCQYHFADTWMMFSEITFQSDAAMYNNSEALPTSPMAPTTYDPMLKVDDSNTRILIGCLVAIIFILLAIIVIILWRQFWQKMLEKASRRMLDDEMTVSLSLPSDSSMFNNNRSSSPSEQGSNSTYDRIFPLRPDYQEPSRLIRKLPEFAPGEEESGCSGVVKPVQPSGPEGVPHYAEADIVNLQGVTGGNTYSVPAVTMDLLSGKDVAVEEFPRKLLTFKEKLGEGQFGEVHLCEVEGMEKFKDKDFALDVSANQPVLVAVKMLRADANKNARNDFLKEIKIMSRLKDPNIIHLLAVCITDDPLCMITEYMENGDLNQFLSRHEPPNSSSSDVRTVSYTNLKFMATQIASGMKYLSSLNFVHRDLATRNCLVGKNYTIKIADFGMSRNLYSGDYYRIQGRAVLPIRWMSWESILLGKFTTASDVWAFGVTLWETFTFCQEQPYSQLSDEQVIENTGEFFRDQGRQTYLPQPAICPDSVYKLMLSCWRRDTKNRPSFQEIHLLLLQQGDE
# 1205Lu melanoma cells [2] = settings: Kaplan-Meier, 1205Lu melanoma-bearing mice
# Procedure: Mouse experiments were carried out in accordance with the Institutional Animal Care and the local ethical committee. […] Tumor was measured by caliper and the volume was calculated using the formula: V=tumor width×tumor length 2×0.5. When tumor reached 100 mm^3, mice were randomly grouped into control and test groups. […] Mice in control group were treated with vehicle. […] After animal sacrifice tumors were dissected, fixed in formalin and embedded in paraffin.
type I collagen-mediated DDR2 tyrosine phosphorylation (DDR2),Structure (SMILES),apoptosis (AnnexinV/PI cytometry) (1205Lu melanoma cells [1]),Median time to progression (1205Lu melanoma cells [2]) [days]
efficiently abrogated,"Cc1ccc(NC(=O)c2ccc(CN3CCN(C)CC3)cc2)cc1Nc1nccc(-c2cccnc2)n1 [Imatinib, (4-(4-methylpiperazin-l-yhnethyl)-N-[4-methyl-3-(4-pyridin-3-yl)pyrimidin-2-ylamino)phenyl-benzamide)]",Induction of apoptosis,
,CCCS(=O)(=O)Nc1ccc(F)c(C(=O)c2c[nH]c3ncc(-c4ccc(Cl)cc4)cc23)c1F [Vemurafenib],,36
